Measurements from the NIST ThermoML archive (doi:10.1021/acs.jced.7b01128).
Several values for one entry are separate records, joined by “and”; a condition that tells them apart may be missing. Equal entries are not always repeated.

How the values were obtained:
[1] = refractive index (Na D-line) (dimensionless); conditions: 101.33 kPa, Liquid, Standard Abbe refractometry
[2] = Liquid, Ebulliometric method (Recirculating still)

CC(C)CCO [3-methylbutan-1-ol]
Conditions | refractive index, 298.15 K | vapor or sublimation pressure, 343.15 K [kPa] | vapor or sublimation pressure, 386.05 K [kPa] | vapor or sublimation pressure, 392.15 K [kPa] | vapor or sublimation pressure, 397.15 K [kPa] | vapor or sublimation pressure, 403.95 K [kPa]
[1] | 1.403 | – | – | – | – | –
[2] | – | 7.73 | 53.33 | 66.66 | 79.99 | 101.05

CCCCO [butan-1-ol]
Conditions | refractive index, 298.15 K | vapor or sublimation pressure, 353.15 K [kPa] | vapor or sublimation pressure, 363.15 K [kPa] | vapor or sublimation pressure, 366.75 K [kPa] | vapor or sublimation pressure, 373.15 K [kPa] | vapor or sublimation pressure, 379.55 K [kPa] | vapor or sublimation pressure, 383.15 K [kPa] | vapor or sublimation pressure, 384.35 K [kPa] | vapor or sublimation pressure, 390.75 K [kPa]
[1] | 1.397 | – | – | – | – | – | – | – | –
[2] | – | 21.73 | 34.13 | 39.99 | 51.86 | 66.66 | 76.52 | 79.99 | 100.78

C1COCCN1 [tetrahydro-1,4-oxazine]
Conditions | refractive index | vapor or sublimation pressure
[1], 293.15 K | 1.455 | –
[2], 343.15 K | – | 13.06 kPa
[2], 353.15 K | – | 19.73 kPa
[2], 363.15 K | – | 28.93 kPa
[2], 372.15 K | – | 39.99 kPa
[2], 373.15 K | – | 41.32 kPa
[2], 380.75 K | – | 53.33 kPa
[2], 383.15 K | – | 57.86 kPa
[2], 387.55 K | – | 66.66 kPa
[2], 393.35 K | – | 79.99 kPa
[2], 393.45 K | – | 79.99 kPa
[2], 401.15 K | – | 101.05 kPa and 100.78 kPa
